# Reference: ChEMBL document CHEMBL1201862, “PubChem BioAssay data set” (2004)
#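 The compound was tested at five concentrations on cells cultured in 96-well plates, with a 48-hour exposure period. GI50 marks 50% less growth.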 Activity calls are given as the source filed them. Cut-off read from the data, not from the text of the source: active = GI50 up to about 1.1 µM and inactive = higher.
# Key:
# Test in all cases: NCI-60 cell line screen, 48 h
# 786-0 = tested on: 786-0
# HOP-92 = tested on: HOP-92
# MCF7 = tested on: MCF7
# HCT-116 = tested on: HCT-116
# DU-145 = tested on: DU-145
# PC-3 = tested on: PC-3
# SK-OV-3 = tested on: SK-OV-3
# ACHN = tested on: ACHN
# LOX IMVI = tested on: LOX IMVI
# UACC-257 = tested on: UACC-257
# NCI-H522 = tested on: NCI-H522
# SW-620 = tested on: SW-620
# SF-539 = tested on: SF-539
# OVCAR-4 = tested on: OVCAR-4
# UACC-62 = tested on: UACC-62
# CAKI-1 = tested on: CAKI-1
# RXF 393 = tested on: RXF 393
# Malme-3M = tested on: Malme-3M
# RPMI-8226 = tested on: RPMI-8226
# M14 = tested on: M14
# NCI-H460 = tested on: NCI-H460
# SK-MEL-2 = tested on: SK-MEL-2
# MOLT-4 = tested on: MOLT-4
# SF-295 = tested on: SF-295
# IGROV-1 = tested on: IGROV-1
# TK-10 = tested on: TK-10
# HT-29 = tested on: HT-29
# UO-31 = tested on: UO-31
# A549 = tested on: A549
# NCI/ADR-RES = tested on: NCI/ADR-RES
# KM12 = tested on: KM12
# CCRF-CEM = tested on: CCRF-CEM
# COLO 205 = tested on: COLO 205
# OVCAR-5 = tested on: OVCAR-5
# EKVX = tested on: EKVX
# U-251 = tested on: U-251
# NCI-H226 = tested on: NCI-H226
# MDA-MB-231 = tested on: MDA-MB-231
# K562 = tested on: K562
# BT-549 = tested on: BT-549
# SN12C = tested on: SN12C
# MDA-MB-435 = tested on: MDA-MB-435
# HL-60 = tested on: HL-60
# HCC 2998 = tested on: HCC 2998
# HCT-15 = tested on: HCT-15
# T47D = tested on: T47D
# Hs-578T = tested on: Hs-578T
# HOP-62 = tested on: HOP-62
# A498 = tested on: A498
# OVCAR-8 = tested on: OVCAR-8
# OVCAR-3 = tested on: OVCAR-3
# SNB-19 = tested on: SNB-19
# SF-268 = tested on: SF-268
# SNB-75 = tested on: SNB-75
# NCI-H23 = tested on: NCI-H23
# SK-MEL-5 = tested on: SK-MEL-5
# MDA-N = tested on: MDA-N
compound,measurement,setting,value
CCOC(=O)C(Cc1ccc(OC(=O)c2ccc(OC)cc2)cc1)NC(=O)C(F)(F)F (configuration not stated),GI50,786-0,> 100 µM (inactive)
same,GI50,HOP-92,45.8 µM (inactive)
same,GI50,MCF7,> 100 µM (inactive)
same,GI50,HCT-116,> 100 µM (inactive)
same,GI50,DU-145,> 100 µM (inactive)
same,GI50,PC-3,> 100 µM (inactive)
same,GI50,SK-OV-3,> 100 µM (inactive)
same,GI50,ACHN,53.6 µM (inactive)
same,GI50,LOX IMVI,> 100 µM (inactive)
same,GI50,UACC-257,> 100 µM (inactive)
same,GI50,NCI-H522,> 100 µM (inactive)
same,GI50,SW-620,> 100 µM (inactive)
same,GI50,SF-539,> 100 µM (inactive)
same,GI50,OVCAR-4,87.7 µM (inactive)
same,GI50,UACC-62,> 100 µM (inactive)
same,GI50,CAKI-1,> 100 µM (inactive)
same,GI50,RXF 393,27.9 µM (inactive)
same,GI50,Malme-3M,> 100 µM (inactive)
same,GI50,RPMI-8226,> 100 µM (inactive)
same,GI50,M14,> 100 µM (inactive)
same,GI50,NCI-H460,> 100 µM (inactive)
same,GI50,SK-MEL-2,> 100 µM (inactive)
same,GI50,MOLT-4,> 100 µM (inactive)
same,GI50,SF-295,80.7 µM (inactive)
same,GI50,IGROV-1,45.3 µM (inactive)
same,GI50,TK-10,> 100 µM (inactive)
same,GI50,HT-29,> 100 µM (inactive)
same,GI50,UO-31,> 100 µM (inactive)
same,GI50,A549,> 100 µM (inactive)
same,GI50,NCI/ADR-RES,> 100 µM (inactive)
same,GI50,KM12,> 100 µM (inactive)
same,GI50,CCRF-CEM,39.5 µM (inactive)
same,GI50,COLO 205,> 100 µM (inactive)
same,GI50,OVCAR-5,> 100 µM (inactive)
same,GI50,EKVX,> 100 µM (inactive)
same,GI50,U-251,69.3 µM (inactive)
same,GI50,NCI-H226,> 100 µM (inactive)
same,GI50,MDA-MB-231,77.6 µM (inactive)
same,GI50,K562,> 100 µM (inactive)
same,GI50,BT-549,> 100 µM (inactive)
same,GI50,SN12C,> 100 µM (inactive)
same,GI50,MDA-MB-435,> 100 µM (inactive)
same,GI50,HL-60,> 100 µM (inactive)
same,GI50,HCC 2998,> 100 µM (inactive)
same,GI50,HCT-15,> 100 µM
same,GI50,T47D,> 100 µM (inactive)
same,GI50,Hs-578T,> 100 µM (inactive)
same,GI50,HOP-62,35.5 µM (inactive)
same,GI50,A498,> 100 µM (inactive)
same,GI50,OVCAR-8,> 100 µM (inactive)
same,GI50,OVCAR-3,> 100 µM (inactive)
same,GI50,SNB-19,> 100 µM (inactive)
same,GI50,SF-268,35.6 µM (inactive)
same,GI50,SNB-75,20.7 µM (inactive)
same,GI50,NCI-H23,45.2 µM (inactive)
same,GI50,SK-MEL-5,> 100 µM (inactive)
same,GI50,MDA-N,> 100 µM (inactive)
